Read-outs that look alike come from different tables or passages of the source.
Assays:
A549 cells = assay: CYQUANT Direct cytotoxicity assay; details: 10 μM, 30 mins at 37° C.; assayed on days 1, 2 and 3
Method: A549 cells plated in a 96 well plate were labeled with [sequence] […] The LCIS was then aspirated from cells and complete media added for an overnight incubation. The following day (Day 1) cells were assayed for cytotoxicity using the CYQUANT Direct assay (Thermo Fisher Scientific).

PBMCs [1] = assay: Cytotoxicity test in PBMCs, viability dye (SYTOX) and flow cytometry; details: after proliferation for 3 to 5 days
Excerpt: (§1) To test for cytotoxicity, PBMCs were stained with CELLTRACE (Thermo Fisher Scientific) CFSE (positive control) or Compound 2. The cells were split into samples for culturing and one sample was stimulated with anti-hCD3 (clone UCHT1) and supplemented with recombinant hIL2. Dye loading was observed by fluorescent microscopy. After proliferation for 3 to 5 days, the samples were stained with the appropriate viability dye (e.g., SYTOX dye) and analyzed by flow cytometry (see Table 3).

[2] = test system: lymphocyte layer of cells from whole blood; assay: Cell tracing by dye dilution, flow cytometry (Compound 2 vs CELLTRACE Far Red DDAO); assay type: cell-based; details: 5 μM, 20 min 37° C.; stimulated 5 days with DYNABEADS Human T-Activator CD3/CD28; 633/635 nm excitation, 660/20 emission filter
Method: The whole blood sample (20 mL) was diluted in 20 mL of PBS and then centrifuged for 30 min after addition of FICOLL-PAQUE Plus (15 mL) (GE Healthcare). The lymphocyte layer of cells was suspended in 25 mL of PBS buffer and centrifuged for 5 min. The cells were counted on the COUNTESS Automated Counter and the concentration was adjusted to 10^6 cells/mL. 10 mL of cells was incubated with either Compound 2 (FIG. 1A) or CELLTRACE Far Red DDAO (FIG. 1B) (Thermo Fisher Scientific) (5 μM) for 20 min in a 37° C. water bath. After incubation the cells were treated with 40 mL of OPTMIZER T Cell Expansion (Thermo Fisher Scientific) for 5 min. The treatment with OPTMIZER T Cell Expansion was repeated one more time after centrifugation. Next, the stained cells were stimulated with 50 μL DYNABEADS Human T-Activator CD3/CD28 (Thermo Fisher Scientific) per 1 mL of cells for 5 days. The stimulated cells were then analyzed using an ATTUNE flow cytometer (Thermo Fisher Scientific) with 633/635 nm excitation and a 660/20 bandpass emission filter.

PBMCs [3] = test system: PBMCs
Excerpt: as §1

| % Live Cells (PBMCs [3]) [%] | Molecule | cytotoxicity compared to DMSO alone (A549 cells) | % Live Cells (PBMCs [1]; 2 μM dye) [%] | % Live Cells (PBMCs [1]; 5 μM dye) [%] | % Live Cells (PBMCs [1]; 10 μM dye) [%] | generations of cells traced [2] |
| --- | --- | --- | --- | --- | --- | --- |
| – | CN1CCCc2cc3c(cc21)C(C)(C)c1cc2c(cc1=C3c1ccccc1C(=O)[O-])CCC[N+]=2CCCCCC(=O)ON1C(=O)CCC1=O [Compound 2, 2-(1-(6-((2,5-dioxopyrrolidin-1-yl)oxy)-6-oxohexyl)-11-metheyliumyl-13,13-dimethyl-1,2,3,4,8,9,10,13-octahydro-1114-benzo[1,2-g:5,4-g′]diquinolin-6-yl)benzoate] | no cytotoxicity | 53 | 55 | 64 | seven |
| 52 | Carboxyfluorescein diacetate succinimidyl ester [CELLTRACE CFSE] | – | – | – | – | – |

From US10739330B2, “Carbopyronone compounds useful as diagnostic adjuvants” (LIFE TECHNOLOGIES CORPORATION, priority 2014, dated 2020)
